SMILES	melting point [°C]
CCOC=Nc1sc2c(c1C#N)CCN(C)C2	88 to 89
N#Cc1ccc(C(=O)OC2CCN(Cc3ccccc3)CC2)cc1	110 to 111
Cc1cnc(C)n2c1c(CCSC1=NCCN1)c1ccccc12	157 to 159
CCOC(=O)Cc1cn(Cc2ccccc2)nc1OCc1ccc(OCc2nc(-c3ccccc3)oc2C)c(OC)c1	86 to 87
CC1(C)CC(=O)OC(C(Cl)(Cl)Cl)C1Cl (configuration not stated)	83 to 84
CCN(CC)c1ccc(C2OC(C)(C)N=C2c2ccccc2)cc1 (configuration not stated)	104 to 105
Cc1oc(-c2ccccc2)nc1COc1ccc(COc2cc(CCC(=O)O)n(-c3ccccc3)n2)cc1	154 to 155
Nc1cccc2c1sc1c(Nc3cccc(Br)c3)ncnc12	216 to 217
CC(C(=O)N1CCCc2ccccc21)N(C(=O)CN1C(=O)c2ccccc2C1=O)c1ccccc1 (racemic)	191
CC(=O)c1ccc(NS(=O)(=O)c2ccc3c(c2)-c2c(nc(C)[nH]c2=O)CC3)cc1	> 240
Cc1cccc(-c2n[nH]cc2-c2ccc(F)c(-c3ccc(S(N)(=O)=O)s3)c2)n1	125
Cc1cc(-c2cc(C(F)(F)F)nn2-c2ccc(S(N)(=O)=O)c(F)c2)ccc1-c1ccco1	78 to 80
COc1cc(N2CCC(N(C)C)C2)ccc1Nc1ncc2ccc(-c3ccccc3OC)n2n1 (configuration not stated)	70 to 78
CNC(=O)c1ccc(N2CCNCC2)c(F)c1	174 to 193
O=C(CCl)NC(C(=O)O)N(C(=O)CCl)c1cscn1 (configuration not stated)	184 to 186
CC1c2ccccc2CC(=O)Cc2ccccc21	152 to 155
CC1(C)NC(=O)C2CN(CCCC(c3ccc(F)cc3)c3ccc(F)cc3)CCN21 (configuration not stated)	148
N#Cc1cc2c(cn1)CCCC2	56 to 59
CCOCc1nc2c(N)nc3cc(-c4cncc(OC)c4)ccc3c2n1CC(C)(C)OCCS(C)(=O)=O	186 to 188
Cc1ccc2nc(-c3ccc4nc(N)sc4c3)sc2c1	250 to 251
CSC(=Nc1nc(C)cc(C)n1)NS(=O)(=O)c1ccccc1-c1ccccc1	154 to 157
CCCc1c(OCCCOc2ccccc2)ccc2c1OC(CCC(=O)O)(CCC(=O)O)CC2	130 to 132
c1csc(-c2ccc(-c3cccs3)nc2)c1	150
COc1ccc(C)cc1NC(=O)Nc1ccc(N2CCN(C(=O)Nc3ccc(OCCO)cc3C)CC2)nc1	189 to 190
C#CCN(C(CCn1c(=O)[nH]c(C)c(C)c1=O)C(=O)NO)S(=O)(=O)c1ccc(Oc2ccccc2)cc1 (configuration not stated)	180 to 181
CN1C(=O)SC(Cc2ccc(NC(=O)/C=C/c3cnn(C)c3-c3ccc(F)cc3)cc2)C1=O (configuration not stated)	228 to 229
CC(=O)CC(=O)CCC(=O)CC(C)=O	62.7 to 64

SMILES	melting point [°C]
CCCCCCCCCCCOCCCN=C=O	72 to 78
Cn1cc(C(=O)c2ccccc2)c2c(Nc3cccc(N)c3)ncnc21	170 to 173
C#CCNC(=S)Cc1ccccn1	62 to 63
COc1ccc(OC2=CCNCC2)cc1	45 to 46
O=C(O)c1ccc(-c2cc(O)c(SCCc3ccccc3)c(=O)o2)cc1	231
Cc1cc(F)ccc1C(=O)CCCN1CCC(O)(c2cccc(C(F)(F)F)c2)CC1	63.5
CC1(C)OCC(NC2COC(C)(C)OC2)CO1	65
CC(C)c1nsc(N=C(Cl)N(C)C)c1C#N	72 to 75
CC1CC(C)(C)NC(c2ccccc2)=N1 (configuration not stated)	86 to 87
CC12C=CCC1C1CCC3CC(=O)CCC3(C)C1CC2 (configuration not stated)	140 to 141
COc1cccc2c1nc(C(F)F)n2-c1nc(N2CCOCC2)cc(N2C[C@@H](C)O[C@@H](C)C2)n1	132 to 134
N#Cc1ccc(COc2ccc(CC(NC(=O)c3cn4ccc(-c5ccc(Cl)cc5)cc4n3)C(=O)O)cc2)cc1 (configuration not stated)	263
COP(=O)(OC)[C@H](C)NC(=O)[C@H](C)NC(=O)[C@H](C)NC(=O)CNC(=O)OCc1ccccc1	162 to 164
C=C(C)CN1Cc2cc(Cl)cc3[nH]c(=S)n(c23)[C@@H](C)C1	171
Cc1c(C)c2c(c(C)c1N)CC(C)(CN1CCN(C(=O)c3ccc([N+](=O)[O-])cc3)CC1)O2 (configuration not stated)	154 to 158
O=C1CCC(c2ccc3[nH]c(-c4cccc(C(F)(F)F)c4)cc3c2)=NN1	215 to 218
O=C(O)CCC(=NOCc1ccc(OCc2cc(-c3ccccc3)no2)cc1)c1ccccc1	96 to 97
O=CN1CCN(c2c(F)c(F)c3c(=O)c(C(=O)O)cn(C4CC4)c3c2F)CC1	290 to 297
O=C1c2ccccc2C(=O)c2c1c(Cl)c1ccc(Sc3ccccc3)cc1c2Cl	160 to 163
c1ccc(C(OC2CCN(CCOc3ccc4nncn4n3)CC2)c2ccccc2)cc1	149 to 150
CNc1coc2ccccc2c1=S	134
Cc1oc(-c2ccco2)nc1COc1ccc(COc2nn(Cc3ccccc3)cc2CO)cn1	94 to 95
N#Cc1cccc(C2=Nc3ccc(C#CC4=CCCCC4)cc3NC(=O)C2)c1	228
Cn1ncc2c(=O)[nH]cnc21	289 to 290
O=C1NCCN1c1ccc(S(=O)(=O)Nc2ccc(Br)cc2)cc1	237 to 239
O=S(=O)(c1ccc(O)cc1)c1ncsc1-c1ccccc1	195

Results, then the compound that gave them:

melting point [°C]	SMILES
205 to 207	CNC(=O)c1ccccc1Nc1nc(Nc2ccc3c(c2OC)CCCC(=O)N3CCOC)ncc1Cl
116 to 118	C#C[C@@]1(O)[C@@H](COC(=O)c2ccc(Cl)cc2)OC(O)[C@@H]1O (some centres not stated)
257 to 260	CCOC(=O)c1cc2c(O)nncc2nc1Nc1ccccc1
191 to 194	CNc1nc(OC)ccc1Nc1nc(Nc2cc3c(cc2OC)CCN(CC(=O)N(C)C)CC3)ncc1Cl
137	Cc1cc(C(C)(CC(=O)c2ccccc2)c2ccccc2)ccc1O (configuration not stated)
139 to 141	O=CNc1ccc(-c2cc[nH]n2)cc1
76 to 77	COc1ccc(C(Cl)Sc2ccc(Cl)cc2)cc1 (configuration not stated)
172 to 173	COc1cccc([C@H]2O[C@H](CC(=O)Nc3cc(C(=O)O)ccc3C)C(=O)N(CC(C)(C)CO)c3ccc(Cl)cc32)c1OC
87	CC(Oc1ccc2nc(NC(=O)NCCN3CCN(C(=O)OC(C)(C)C)CC3)sc2c1)c1c(Cl)ccc(F)c1Cl (configuration not stated)
160 to 163	O=CCCNC(=O)c1cc(Br)c(Br)[nH]1
244 to 245	CC(C)c1cc(C(=O)Nc2cccc(C(=O)O)c2)oc1C(C)C
124 to 125	COc1cc2ccc(C(=O)c3ccccc3)cc2cc1OC
192 to 194	NC(=O)c1ncn2c1NCC=C2c1cccc(C(F)(F)F)c1
70	CC(C)(C)C(=O)C(Br)Oc1ccc(Cl)cc1Cl (configuration not stated)
126 to 128	COc1ccc(C2=NN(C3CCNCC3)C(=O)C(C)(C)C2)cc1OC
220 to 223	CC(=O)c1cccc2nc[nH]c12
205 to 207	CC(=O)Nc1cc(S(=O)(=O)c2ccccc2)ccc1NC(=O)C(C)(O)C(F)(F)F (configuration not stated)
83	CC(C)(C)OC(=O)[C@@H]1CC[C@@H]2CN1C(=O)N2OCc1ccccc1
114 to 116	CCC(C(c1ccc(OC)cc1)c1ccc(C(C)(C)C)cc1)[N+](=O)[O-] (configuration not stated)
263 to 264	CCOC(=O)c1ncn2c1CNC(=O)c1sccc1-2
174 to 176	CN1CCN(C(=NNS(=O)(=O)c2ccccc2)c2ccc(Cl)cc2Cl)CC1
162 to 164	COc1cc(NC(=O)Nc2ccc(Oc3ccncc3)cc2)cc(C(F)(F)F)c1
113 to 114	CCCCCC(C(=O)O)c1cccc(Oc2ccccc2C)c1O (configuration not stated)
235 to 236	Oc1ncc(-c2cccc(Cl)c2)cn1
245	CC1SC(=O)NN=C1c1ccc2c(c1)C(C)(C)C(=O)N2C(=O)c1cccnc1 (configuration not stated)

melting point [°C]	SMILES
170	Cc1c(C(=O)Nc2ncc(CO)s2)nnn1Cc1ccc(Cl)c(Cl)c1
68 to 71	CNS(=O)(=O)Oc1ccccc1OC
210 to 211	NC(=O)c1nc(-c2ccccc2)c[nH]1
164 to 166	COC(C(=O)O)c1ccc2nc(-c3ccc(Cl)cc3)oc2c1 (configuration not stated)
105 to 109	CN(C(C)(C)C)S(=O)(=O)CC(N)=O
256 to 258	Cc1cc(C)cc(Oc2c(CCl)c(C)[nH]c(=O)c2I)c1
80 to 82	C[N+](C)([O-])c1ccc(/C=C/c2c(Cl)cccc2Cl)cc1
88 to 90	CN1CCN(CCCNc2ccc(Cl)cc2N)CC1
96 to 98	CC(=O)Nc1ccc(OCCCCCO[N+](=O)[O-])cc1
205 to 206	CCOC(=O)c1cc2c(nc(C)n2C)c(O)c1CCC(=O)c1ccccc1
105	O=C(NC/C=C/c1ccccc1)c1ccc(Cl)c(Cl)c1
168 to 169	O=CNNc1cccc([N+](=O)[O-])c1
151 to 152	COC(=O)c1nc(Cl)c(Cl)c(Cl)c1N
202 to 204	O=c1oc2c(Cl)cccc2cc1S(=O)(=O)Nc1ccc(Br)cc1
172 to 173	CC(C)(C)c1cc2c(c(C(=O)Nc3ccc(S(=O)(=O)C(F)(F)F)cc3Cl)c1O)CCC2
165 to 166	O=S(=O)(NCC(O)(Cn1cncn1)c1ccc(Cl)cc1Cl)c1ccc(C(F)(F)F)cc1 (configuration not stated)
125 to 127	COc1cc(OC)nc(SC2CCCC2CC(=O)O)n1 (configuration not stated)
74 to 79	C=C(Sc1ccc(C(C)(C)C)cc1)S(=O)(=O)c1ccc(Cl)cc1
> 300	N#Cc1ccc(Nc2ncc(Cl)c(O)n2)cc1
274 to 276	COc1c(O)cnc(C)c1C
204 to 205	CC(C)(C)OC(=O)NCCCCCC(=O)OCC1OC(n2cc(C=CBr)c(=O)[nH]c2=O)CC1O (configuration not stated)
171 to 172	CC(=O)Oc1ccc(-c2c(CBr)c3ccc(OC(C)=O)cc3oc2=O)c(OC(C)=O)c1
159 to 160	O=C(Nc1nnc(C2CC2)o1)C(c1ccccc1)c1ccccc1
128	COc1ccc(-c2cc(CO)c(=O)n(Cc3ccc(Cl)cc3)c2)cc1
